Experimental data published in patent publication US9006271B2, “5-[5-[2-(3,5-bis(trifluoromethyl)phenyl)-2-methylpropanomethylpropanoylmethylamino]-4-(4-fluoro-2-methylphenyl)]-2-pyridinyl-2-alkyl-prolinamide as NK1 receptor antagonists” (Nerre Therapeutics Limited, priority 2008, dated 2015).
Structures can show the parent of a compound that is named as a salt.

Assays:
common marmosets = test: marmoset human threat test; type: in vivo, common marmoset; settings: for No. jumps (index of locomotor activity): 1 h before test, mean±SEM n=4, vehicle 16.3 ± 1.7
Procedure: For example the marmoset human threat test (Costall et al., 1988 The study utilised in house laboratory-bred male and female common marmosets over 2 years of age, weighing 300-500 g. The animals were caged in couples, in a housing room maintained at 25±1° C., 60% humidity and a 12 hour light/dark cycle (lights on at 0600, with 30 min simulated dawn and twilight). Testing was carried out with the animals situated in the home cage. One hour before the test animals were treated orally with vehicle (0.5% HPMC) or test compound (1 ml/kg). After a wash-out period of at least three days, treatments were reassigned and the study was complete when all animals had received all treatments. Number of specific behavioural postures in response to the human threat and the number of jumps were analysed in this study. The postures recorded in the test were those described by Costall et al (1988). and the number of jumps from the back of the cage to the cage front provided an index of locomotor activity to assess potential for sedation or locomotor stimulation. […] Results are expressed as mean±SEM (n=7). of number of postures and as a mean±SEM (n=4) of number of jumps. Data were subjected to one-way analysis of variance (ANOVA) followed by Dunnett's test, comparing each compound dose with vehicle treatment, using Statistica software (version 8.0) Statistically significant differences with respect to vehicle are indicated as *P<0.01.

NK1 receptor = biological target: T1, NK1 receptor (Meriones unguiculatus, UniProt Q5DUB1); test: gerbil foot tapping model (GR73632-induced, icv); type: in vivo
T1 construct: from tissue; host or cells: living gerbil, central nervous system (in vivo)
T1 sequence (Q5DUB1 whole entry): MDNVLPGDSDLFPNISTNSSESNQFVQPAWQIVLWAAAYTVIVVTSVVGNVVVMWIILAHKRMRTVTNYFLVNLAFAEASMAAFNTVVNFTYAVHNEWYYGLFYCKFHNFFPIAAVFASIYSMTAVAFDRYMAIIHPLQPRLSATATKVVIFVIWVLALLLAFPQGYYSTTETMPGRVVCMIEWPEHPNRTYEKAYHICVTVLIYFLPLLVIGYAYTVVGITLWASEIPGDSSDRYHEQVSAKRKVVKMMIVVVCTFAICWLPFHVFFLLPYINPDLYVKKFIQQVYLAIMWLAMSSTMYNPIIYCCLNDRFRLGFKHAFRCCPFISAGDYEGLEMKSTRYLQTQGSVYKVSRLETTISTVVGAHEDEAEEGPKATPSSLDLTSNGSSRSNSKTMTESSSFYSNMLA
Description: The ability of the compounds of the invention to penetrate the central nervous system and to bind at the NK1 receptor may be determined using the gerbil foot tapping model as described by Rupniak & Williams, Eur. Jour. of Pharmacol., 1994.
Intracerebroventricular (icv) administration of the NK1 receptor agonist GR73632 (R. M. Hagan et al., Neuropeptides 1991, 19 (2), 127-135) a characteristic hind leg foot tapping (GFT) response in gerbils which can be inhibited by potent NK1 receptor antagonists. The gerbil foot tapping paradigm was carried out as follows; gerbils were dosed with compound of the invention, and following an appropriate pre-treatment time were anaesthetised using isofluorane/oxygen mixture. The skull was then exposed and 5 ul of GR73632 (3 pmol conc.) was injected by insertion of a cuffed 25 G needle to a depth of 4 mm below bregma, directly into the lateral ventricle (intracerebroventricular dosing). Immediately following the injection, gerbils were placed individually into a clear observation box to recover. Upon the gerbil regaining its righting reflex, the duration of repetitive hind foot tapping was recorded over a 5 minute period. […]

In the case of `Cc1cc(F)ccc1-c1cc([C@H]2CC[C@](C)(C(N)=O)N2)ncc1N(C)C(=O)C(C)(C)c1cc(C(F)(F)F)cc(C(F)(F)F)c1` [Example 11, (5R)-5-[5-[{2-[3,5-bis(trifluoromethyl)phenyl]-2-methylpropanoyl}(methyl)amino]-4-(4-fluoro-2-methylphenyl)-2-pyridinyl]-2-methyl-D-prolinamide bis-hydrochloride], the “No. jumps (index of locomotor activity)” value (common marmosets; 0.1 mg/kg oral) is reported as 20.1 ± 2.1, the “No. jumps (index of locomotor activity)” value (common marmosets; 0.3 mg/kg oral) is reported as 13.4 ± 2.5 and the “No. jumps (index of locomotor activity)” value (common marmosets; 1 mg/kg oral) is reported as 13.0 ± 2.1. The “effect on number of jumps” value (common marmosets; 0.1, 0.3 or 1 mg/kg oral) was “not accompanied by a reduction in the number of jumps”, the “effect on number of postures” value (common marmosets; 0.1, 0.3 or 1 mg/kg oral, significant at 0.3 and 1 mg/kg (P<0.01)) was “dose dependent reduction in the number of postures” and the “GR73632-induced foot tapping behaviour” value (NK1 receptor; 0.3, 1.0 and 3.0 mg/kg p.o., P<0.01) was “significantly attenuated”. For the same compound, the “ID50 as plasma concentration” value (NK1 receptor; plasma, p.o.) was “approximately 5 ng/ml”.
